# Assay results: patent publication US20220000964A1, “Compositions and Methods for Regulating Homeostasis of Chondrocytes, Extracellular Matrix, Articular Cartilage, and Phenotype of Arthritis” (Unigen, Inc., priority 2020, published 2022)
# “And” between values parts separate entries of the source, which are not always exact repeats. Identical values can stand only once. Marks after values point to notes of the source that are not given here.
# Tests used:
# Format in all cases: in vivo, rat
# [1] = tested on: uCTX-II; experiment: CIA rats, urinary CTX-II ELISA normalized to creatinine
# Procedure: The presence of the cartilage degradation biomarker uCTX-II was measured using the Rat CTX-II ELISA kit from Mybiosource (product #: MBS2880519) as follows: diluted urine was added to a microplate coated with CTX-II antibody and allowed to bind for 2 h at 37° C. […] The microplate was washed thoroughly to remove unbound urine and antibody before an enzyme-conjugated avidin antibody was added to bind to the biotin-conjugated antibody for specific detection. The avidin antibody was allowed to bind for 1 h at 37° C. Washing was repeated, enzyme substrate was added, and the plate was developed for 30 min at 37° C. After the addition of stop solution, the absorbance was read at 450 nm, multiplied by dilution factor, and the concentration of CTX-II calculated based on the absorbance readings of a CTX-II standard curve. CTX-II amount was normalized to the amount of Creatinine in the urine using the Creatinine Parameter Assay Kit from R and D Systems (product #: […] Absorbance was read at 492 nm and Creatinine amount in urine was calculated based on the absorbance readings of a Creatinine standard curve.
# [2] = tested on: CIA rats; experiment: CIA rats, paw thickness; set-up: Paw thickness (Mean): unit not given beside the values; conditions: for % Inhibition Paw thickness (AUC): vs CIA + vehicle
# [3] = tested on: PIIANP; experiment: CIA rats, PIIANP ELISA (synovial fluid or serum)
# Procedure: The presence of cartilage regeneration/rebuilding biomarker PIIANP was measured using the Rat Procollagen Type IIA N-Prop (PIIANP) ELISA kit from Mybiosource (product #: MBS9399069) as follows: synovial fluid was added to a microplate coated with PIIANP antibody as well as an HRP-conjugated PIIANP antibody and allowed to bind for one hour at 37° C. The microplate was thoroughly washed, and a Chromagen solution was added and allowed to bind for 15 minutes at 37° C. After the addition of stop solution, the absorbance was read at 450 nm and the concentration of PIIANP calculated based on the absorbance readings of a PIIANP standard curve.
# The level of cartilage regeneration biomarker PIIANP was measured using the Rat Procollagen Type IIA N-Prop (PIIANP) ELISA kit from Mybiosource (product #: MBS9399069) as follows: undiluted serum was added to a microplate coated with PIIANP antibody as well as an HRP-conjugated PIIANP antibody and allowed to bind for one hour at 37° C. The microplate was thoroughly washed, and a Chromagen solution was added and allowed to bind for 15 minutes at 37° C. After the addition of stop solution, the absorbance was read at 450 nm and the concentration of PIIANP calculated based on the absorbance readings of a PIIANP standard curve.
# [4] = tested on: IL-1β; experiment: CIA rats, serum IL-1β ELISA; conditions: AMK CIA study; MTX 75 μg/kg, AMK 200 mg/kg oral
# Procedure: The presence of catabolic cytokines IL-1β, TNF-α, or IL-6 was measured using Rat IL-1, TNF-α, and IL-6 Quantikine ELISA kit from R and D Systems (product #: RLB00 for IL-1β, RTA00 for TNF-α, and R6000B for IL-6) as follows: diluted serum was added to a microplate coated with polyclonal IL-1, TNF-α, or IL-6 antibody and allowed to bind for 2 h at room temperature. The microplate was washed thoroughly to remove unbound serum and then a polyclonal enzyme-conjugated IL-1β, TNF-α, or IL-6 antibody was added and allowed to bind for 2 h at room temperature. Washing was repeated, enzyme substrate was added, and the plate was developed for 30 min at room temperature. After the addition of stop solution, the absorbance was read at 450 nm, multiplied by dilution factor, and the concentration of IL-1β/TNF-α/IL-6 calculated based on the absorbance readings of an IL-1β/TNF-α/TL-6 standard curve.
# [5] = tested on: MMP-13; experiment: CIA rats, serum MMP-13 ELISA; conditions: for MMP-13: serum
# Procedure: The presence of cartilage degradative enzyme MMP-13 was measured using the Rat Matrix Metallo-Proteinase 13 (MMP-13) ELISA kit from Mybiosource (product #: MBS702112 for MMP-13) as follows: serum was added to a microplate coated with MMP-13 antibody and allowed to bind for 2 h at 37° C. The samples were removed and then a biotin-conjugated MMP-13 antibody was added and allowed to bind for 1 h at 37° C. The microplate was thoroughly washed, and an avidin-conjugated Horse Radish Peroxidase was added and allowed to bind for 1 h at 37° C. Enzyme substrate was then added, and the plate was developed for 30 min at 37° C. After the addition of stop solution, the absorbance was read at 450 nm, multiplied by dilution factor, and the concentration of MMP-13 calculated based on the absorbance readings of an MMP-13 standard curve
# The presence of cartilage degradative enzyme MMP-13 was measured using the Rat Matrix Metalloproteinase 13 (MMP-13) ELISA kit from Mybiosource (product #: MBS702112) as follows: undiluted serum was added to a microplate coated with MMP-13 antibody and allowed to bind for 2 hours at 37° C. The samples were removed, and then a biotin-conjugated MMP-13 antibody was added and allowed to bind for 1 hour at 37° C. The microplate was thoroughly washed, and an avidin-conjugated Horse Radish Peroxidase was added and allowed to bind for 1 hour at 37° C. Enzyme substrate was then added, and the plate was developed for 30 minutes at 37° C. After the addition of stop solution, the absorbance was read at 450 nm and the concentration of MMP-13 calculated based on the absorbance readings of an MMP-13 standard curve.
# [6] = tested on: IL-6; experiment: CIA rats, serum IL-6 ELISA; conditions: for IL-6: serum
# Procedure: (§1) The presence of catabolic cytokines IL-6/TNF-α was measured using the Rat IL-6/TNF-α Quantikine ELISA kit from RandD Systems as follows: undiluted serum was added to a microplate coated with polyclonal IL-6/TNF-α antibody and allowed to bind for 2 hours at room temperature. The microplate was washed thoroughly to remove unbound serum, and then a polyclonal enzyme-conjugated IL-6/TNF-α antibody was added and allowed to bind for 2 hours at room temperature. Washing was repeated, enzyme substrate was added, and the plate was developed for 30 minutes at room temperature. After the addition of stop solution, the absorbance was read at 450 nm and the concentration of IL-6/TNF-α calculated based on the absorbance readings of an IL-6/TNF-α standard curve.
# [7] = tested on: CIA rats; experiment: Collagen-induced arthritis (CIA) rats, arthritis severity index; conditions: for % Inhibition Arthritis index (AUC): vs CIA + vehicle
# Procedure: Male Sprague Dawley rats (7-8 weeks old, n=40) were purchased from Charles River Laboratories Inc. (Wilmington, Mass., USA) and acclimated upon arrival for two weeks before being assigned randomly to their respective treatment groups: G1=Normal control (−) (n=10/group), G2=collagen-induced arthritis (CIA)+Vehicle (0.5% Carboxy Methylcellulose) (n=10/group), G3=CIA+Methotrexate (+) (75 μg/kg) (n=10/group), and G4=CIA+AMK (+) (200 mg/kg) (n=10/group). Treatment was initiated two weeks before model induction and lasted for an additional three weeks thereafter. Collagen type-II (Lot #845) from bovine nasal septum and Incomplete Freund's adjuvant (IFA) (Lot #SLBR0642v) were purchased from Elastin Products Company (Owensville, Mich., USA) and Sigma (St. Louise, Mo., USA), respectively. All materials were kept at suitable temperatures as recommended by the manufacturer. At the time of preparation, 60 mg of collagen was weighed and added to pre-chilled 15 mL 0.1 M acetic acid in a 60 mL-sized flask with a magnetic stirrer to yield 4 mg/mL concentration (Brand, et al., 2003; Rosloniec et al., 2001).
# The mixture was dissolved by gently stirring overnight at 4° C. The next morning, the dissolved collagen was emulsified with equal volume of IFA (15 mL) to achieve a final concentration of 2 mg/mL collagen. Rats sedated with isoflurane were then primed intradermally with 400 μL of the emulsified collagen at the base of their tail at two sites using a 1 mL syringe fitted with a 26 G needle. The dissolved mixture was kept in an ice bucket and stirred between groups at the time of injection to preserve uniform consistency. On the seventh day, rats were inoculated with a booster dose of 2 mg/mL type II collagen emulsified with equal volume of incomplete adjuvant at 100 μL/rat/site.
# Clinical findings such as arthritis severity index, paw thickness, ankle diameter (using Digital Absolute, Model #PK-0505CPX, Mitutoyo Corporation, Kawasaki, Japan), and pain sensitivity (using Randall Salitto, IITC Life Science Inc., Woodland Hills, Calif., USA) were monitored during the course of study. Urine was collected from overnight fasted rats using metabolic cages after three weeks of treatment post-model induction. At Necropsy, serum from the cardiac and synovial lavage (100 μL of saline was injected into the articular cavity and aspirated back to the syringe) for biomarkers and ankle joint for histopathology were collected from each animal.
# Linear trapezoid rule was used to calculate area under the curve (AUC) for days 9-21. % Inhibition={(Mean value of treatment-mean value of CIA+)/(Mean value of control-mean value of CIA)}*100.
# Male Sprague Dawley rats (7-8 weeks old, n=40) were purchased from Charles River Laboratories Inc. (Wilmington, Mass., USA) and acclimated upon arrival for two weeks before being assigned randomly to their respective treatment groups: G1=Normal control (−) (n=10/group), G2=collagen-induced arthritis (CIA)+Vehicle (0.5% Carboxy Methylcellulose) (n=10/group), G3=CIA+Methotrexate (+) (0.5 mg/kg) (n=10/group), and G4=CIA+AP (+) (200 mg/kg) (n=10/group). Treatment was initiated two weeks before model induction and lasted for an additional three weeks thereafter. Collagen type-II (Lot #845) from bovine nasal septum and Incomplete Freund's adjuvant (IFA) (Lot #SLBR0642v) were purchased from Elastin Products Company (Owensville, Mich., USA) and Sigma (St. Louise, Mo., USA), respectively. All materials were kept at suitable temperatures as recommended by the manufacturer. At the time of preparation, 60 mg of collagen was weighed and added to pre-chilled 15 mL 0.1 M acetic acid in a 60 mL-sized flask with a magnetic stirrer to yield 4 mg/mL concentration (Brand, et al., 2003; Rosloniec et al., 2001). The mixture was dissolved by gently stirring overnight at 4° C. The next morning, the dissolved collagen was emulsified with equal volume of IFA (15 mL) to achieve a final concentration of 2 mg/mL collagen.
# [8] = tested on: TNF-α; experiment: CIA rats, serum TNF-α ELISA; conditions: for TNF-α: serum
# Procedure: as §1
# [9] = tested on: CIA rats; experiment: CIA rats, ankle joint histopathology (modified Mankin)
# Procedure: For histopathological examination, the ankle joints were kept in 10% formalin for 72 h. The fixed specimens were then decalcified with Calci-Clear Rapid for one and a half days and embedded in paraffin. Standardized 5 μm serial sections were obtained at the medial and lateral section in the sagittal plane of the joint and were stained with hematoxylin and eosin (HE) and Safranin O-fast green to enable evaluation of proteoglycan content. A modified Mankin system (Mankin et al., 1971) was used to score structural and cellular alterations of joint tissues resulting from disease progression and/or treatment efficacy. The histological analysis was conducted at Nationwide Histology and slides were examined by a certified pathologist.
# At necropsy, the ankle joint was carefully dissected out, fixed in 10% buffered formalin and sent to Nationwide Histology (Veradale, Wash., USA) for further histopathology analysis. The fixed specimens were then decalcified with Calci-Clear Rapid for one and a half days and embedded in paraffin. Standardized 5 m serial sections were obtained from each rat and stained with hematoxylin and eosin (HE) and Safranin O-fast green to enable evaluation of proteoglycan content. A modified Mankin system (Mankin et al., 1981) was used to score structural and cellular alterations of articular components as indications of disease progression and/or treatment efficacy. The histological analysis was conducted by a certified Pathologist at Nationwide Histology.
# [10] = AMK CIA study, MTX 75 μg/kg, AMK 200 mg/kg oral
# [11] = AMK study, MTX 75 μg/kg, AMK 200 mg/kg
# [12] = AP CIA study, Methotrexate 0.5 mg/kg, AP 200 mg/kg oral
# [13] = AP study, MTX 0.5 mg/kg, AP 200 mg/kg
# [14] = AMK study, MTX (75 μg/mL), AMK (200 mg/kg)
# [15] = AP study, MTX (0.5 mg/mL), AP (200 mg/kg) oral 3 weeks
# [16] = AP study, MTX (0.5 mg/mL), AP (200 mg/kg)
# [17] = score 0-6, AMK study, MTX (75 μg/mL), AMK (200 mg/kg)
# [18] = score, AP study, MTX (0.5 mg/mL), AP (200 mg/kg)
smiles,measurement,setting,value
CN(Cc1cnc2nc(N)nc(N)c2n1)c1ccc(C(=O)N[C@@H](CCC(=O)O)C(=O)O)cc1 [Methotrexate],inhibition of urine CTX-II (cartilage degradation) vs vehicle-treated CIA,[1]; [10],26.4%
same,CTX-II,"[1]; urine, CIA rats, MTX 75 μg/mL (printed), AMK 200 mg/kg",2500.8 ± 355.9 ng/g creatinine
same,percent reduction in paw thickness / paw edema (AUC) vs vehicle-treated CIA,"[2]; AMK CIA study, MTX 75 μg/kg, AMK 200 mg/kg oral, area under the swelling curve",71.7%
same,AUC(d9-d21) (Mean ± SD) Paw thickness,[2]; [11],20.64 ± 0.21
same,percent reduction in paw thickness / paw edema (AUC) vs vehicle-treated CIA,[2]; [12],93.8%
same,AUC(d9-d21) (Mean ± SD) Paw thickness,[2]; [13],15.55 ± 0.21
same,Paw thickness,"[2]; Boost, AP study, MTX 0.5 mg/kg, AP 200 mg/kg",2.95 ± 0.06
same,Paw thickness (Mean),"[2]; Boost, MTX 75 μg/kg, AMK 200 mg/kg",3.07
same,Paw thickness (Mean),"[2]; Day 9, MTX 75 μg/kg, AMK 200 mg/kg",3.12
same,Paw thickness (Mean),"[2]; Day 10, MTX 75 μg/kg, AMK 200 mg/kg",3.17
same,Paw thickness (Mean),"[2]; Day 11, MTX 75 μg/kg, AMK 200 mg/kg",3.32
same,Paw thickness,"[2]; Day 12, AP study, MTX 0.5 mg/kg, AP 200 mg/kg",2.99 ± 0.06
same,Paw thickness (Mean),"[2]; Day 12, MTX 75 μg/kg, AMK 200 mg/kg",3.47*
same,Paw thickness (Mean),"[2]; Day 13, MTX 75 μg/kg, AMK 200 mg/kg",3.53*
same,Paw thickness,"[2]; Day 14, AP study, MTX 0.5 mg/kg, AP 200 mg/kg",3.01 ± 0.03
same,Paw thickness (Mean),"[2]; Day 14, MTX 75 μg/kg, AMK 200 mg/kg",3.60*
same,Paw thickness (Mean),"[2]; Day 15, MTX 75 μg/kg, AMK 200 mg/kg",3.98^†
same,Paw thickness,"[2]; Day 16, AP study, MTX 0.5 mg/kg, AP 200 mg/kg",3.21 ± 0.05
same,Paw thickness (Mean),"[2]; Day 16, MTX 75 μg/kg, AMK 200 mg/kg",4.32^†
same,Paw thickness (Mean),"[2]; Day 17, MTX 75 μg/kg, AMK 200 mg/kg",3.96^¥
same,Paw thickness,"[2]; Day 18, AP study, MTX 0.5 mg/kg, AP 200 mg/kg",3.25 ± 0.05
same,Paw thickness (Mean),"[2]; Day 19, MTX 75 μg/kg, AMK 200 mg/kg",3.06^¥
same,Paw thickness,"[2]; Day 20, AP study, MTX 0.5 mg/kg, AP 200 mg/kg",3.23 ± 0.06
same,Paw thickness (Mean),"[2]; Day 21, MTX 75 μg/kg, AMK 200 mg/kg",3.07^€
same,Paw thickness,"[2]; Priming, AP study, MTX 0.5 mg/kg, AP 200 mg/kg",2.93 ± 0.07
same,Paw thickness (Mean),"[2]; Priming, MTX 75 μg/kg, AMK 200 mg/kg",3.06
same,% Inhibition Paw thickness (AUC),"[2]; MTX 75 μg/kg, AMK 200 mg/kg",71.71%
same,% Inhibition Paw thickness (AUC),"[2]; MTX 0.5 mg/kg, AP 200 mg/kg",93.81%
same,increase in synovial PIIANP vs vehicle-treated CIA,[3]; [10],69.8%
same,increase in serum PIIANP vs CIA + vehicle,[3]; [12],47%
same,PIIANP,"[3]; serum, AP study, MTX (0.5 mg/mL), AP (200 mg/kg) oral 3 weeks",6.53 ± 1.4 ng/mL
same,PIIANP,"[3]; synovial fluid, CIA rats, MTX 75 μg/mL (printed), AMK 200 mg/kg",0.43 ± 0.16 ng/mg
same,serum IL-1β inhibition compared to diseased control,[4],71.5%
same,serum MMP-13 inhibition compared to vehicle-treated CIA rats,[5]; [10],78.6%
same,MMP-13,[5]; [14],9.67 ± 1.80 pg/mL
same,MMP-13,[5]; [15],86.57 ± 45.31 pg/mL
same,serum IL-6 inhibition compared to diseased control,[6]; [10],78.6%
same,IL-6,[6]; [14],10.23 ± 7.37 pg/mL
same,IL-6,[6]; [15],3.33 ± 6.44 pg/mL
same,percent reduction of area under the arthritis severity curve vs vehicle-treated CIA,"[7]; AMK CIA study, MTX 75 μg/kg, AMK 200 mg/kg oral, AUC days 9-21",62.55% and 62.6%
same,AUC(d9-d21) (Mean ± SD) Arthritis index,[7]; [11],4.87 ± 0.21
same,average arthritis severity score at the end of the study,[7]; [12],1.1±0.17
same,percent reduction of area under the arthritis severity curve vs vehicle-treated CIA,[7]; [12],78.8%
same,AUC(d9-d21) (Mean ± SD) Arthritis index,[7]; [13],5.00 ± 0.48
same,"Arthritis Index, Mean","[7]; Boost, MTX 0.5 mg/kg, AP 200 mg/kg",0.00
same,"Arthritis Index, Mean","[7]; CIA, MTX 75 μg/kg, AMK 200 mg/kg oral, Boost",0.00
same,"Arthritis Index, Mean","[7]; CIA, MTX 75 μg/kg, AMK 200 mg/kg oral, Day 9",0.00
same,"Arthritis Index, Mean","[7]; CIA, MTX 75 μg/kg, AMK 200 mg/kg oral, Day 10",0.00
same,"Arthritis Index, Mean","[7]; CIA, MTX 75 μg/kg, AMK 200 mg/kg oral, Day 11",0.00
same,"Arthritis Index, Mean","[7]; CIA, MTX 75 μg/kg, AMK 200 mg/kg oral, Day 12",0.23*
same,"Arthritis Index, Mean","[7]; CIA, MTX 75 μg/kg, AMK 200 mg/kg oral, Day 13",0.46^¥
same,"Arthritis Index, Mean","[7]; CIA, MTX 75 μg/kg, AMK 200 mg/kg oral, Day 14",0.70^¥
same,"Arthritis Index, Mean","[7]; CIA, MTX 75 μg/kg, AMK 200 mg/kg oral, Day 15",1.10^€
same,"Arthritis Index, Mean","[7]; CIA, MTX 75 μg/kg, AMK 200 mg/kg oral, Day 16",1.50^€
same,"Arthritis Index, Mean","[7]; CIA, MTX 75 μg/kg, AMK 200 mg/kg oral, Priming",0.00
same,"Arthritis Index, Mean","[7]; CIA, MTX 75 μg/kg, AMK 200 mg/kg oral, day 17",1.76^€
same,"Arthritis Index, Mean","[7]; CIA, MTX 75 μg/kg, AMK 200 mg/kg oral, day 19",2.03^€
same,"Arthritis Index, Mean","[7]; CIA, MTX 75 μg/kg, AMK 200 mg/kg oral, day 21 (end of study)",1.78±0.79
same,"Arthritis Index, Mean","[7]; CIA, MTX 75 μg/kg, AMK 200 mg/kg oral, day 21 (end of study), listed as MTX",1.78^€
same,"Arthritis Index, Mean","[7]; Day 10, MTX 0.5 mg/kg, AP 200 mg/kg",0
same,"Arthritis Index, Mean","[7]; Day 11, MTX 0.5 mg/kg, AP 200 mg/kg",0
same,"Arthritis Index, Mean","[7]; Day 12, MTX 0.5 mg/kg, AP 200 mg/kg",0.05**
same,"Arthritis Index, Mean","[7]; Day 13, MTX 0.5 mg/kg, AP 200 mg/kg",0**
same,"Arthritis Index, Mean","[7]; Day 14, MTX 0.5 mg/kg, AP 200 mg/kg",0**
same,"Arthritis Index, Mean","[7]; Day 15, MTX 0.5 mg/kg, AP 200 mg/kg",0.35**
same,"Arthritis Index, Mean","[7]; Day 16, MTX 0.5 mg/kg, AP 200 mg/kg",0.875**
same,"Arthritis Index, Mean","[7]; Day 17, MTX 0.5 mg/kg, AP 200 mg/kg",1**
same,"Arthritis Index, Mean","[7]; Day 19, MTX 0.5 mg/kg, AP 200 mg/kg",1.075**
same,"Arthritis Index, Mean","[7]; Day 20, MTX 0.5 mg/kg, AP 200 mg/kg",1.1**
same,"Arthritis Index, Mean","[7]; Priming, MTX 0.5 mg/kg, AP 200 mg/kg",0.00
same,% Inhibition Arthritis index (AUC),"[7]; MTX 75 μg/kg, AMK 200 mg/kg",62.55%
same,% Inhibition Arthritis index (AUC),"[7]; MTX 0.5 mg/kg, AP 200 mg/kg",78.78%
same,serum TNF-α inhibition compared to diseased control,[8]; [10],86.2%
same,serum TNF-α level vs vehicle-treated CIA,[8]; [12],significantly reduced
same,TNF-α,"[8]; AMK study, AMK (200 mg/kg)",0.37 ± 1.12 pg/mL
same,TNF-α,[8]; [15],10.2 ± 0.37 pg/mL
same,"Bone Erosion, percent inhibition against vehicle treated disease model",[9]; [14],(66.3%)
same,"Cartilage destruction, percent inhibition against vehicle treated disease model",[9]; [14],(32.6%)
same,"GAG Loss, percent inhibition against vehicle treated disease model",[9]; [14],(50.8%)
same,"Inflammation, percent inhibition against vehicle treated disease model",[9]; [14],(36.0%)
same,"Bone Erosion, percent inhibition against vehicle treated disease model",[9]; [16],(100%)
same,"Cartilage destruction, percent inhibition against vehicle treated disease model",[9]; [16],(98.3%)
same,"GAG Loss, percent inhibition against vehicle treated disease model",[9]; [16],(94.5%)
same,"Inflammation, percent inhibition against vehicle treated disease model",[9]; [16],(100%)
same,Bone Erosion (Mean ± SE),[9]; [17],1.13 ± 0.46
same,Cartilage destruction (Mean ± SE),[9]; [17],2.90 ± 0.63
same,GAG Loss (Mean ± SE),[9]; [17],2.04 ± 0.62
same,Inflammation (Mean ± SE),[9]; [17],3.25 ± 1.02
same,Bone Erosion (Mean ± SE),[9]; [18],0.00 ± 0.00
same,Cartilage destruction (Mean ± SE),[9]; [18],0.13 ± 0.05
same,GAG Loss (Mean ± SD),[9]; [18],0.21 ± 0.17
same,Inflammation (Mean ± SE),[9]; [18],0.00 ± 0.00
